Measurements as given in patent US20240381872A1, “SUBSTITUTED 2,3-DIHYDRO[1,3]THIAZOLO[4,5-B]PYRIDINES, SALTS THEREOF AND THEIR USE AS HERBICIDALLY ACTIVE SUBSTANCES” (BAYER AKTIENGESELLSCHAFT, priority 2021, published 2024).

What was measured:
Format in all cases: in vivo
[1] = tested on: Echinochloa crus-galli (ECHCG); test: Herbicidal post-emergence action, section B (Table B3); details: Echinochloa crus-galli, 504 h, rated visually after about 3 weeks, read-out: post-emergence activity against ECHCG in %
Experimental: (§1) Seeds of mono- and dicotyledonous weed plants were placed in plastic pots in sandy loam soil (doubly sown with in each case one species of mono- or dicotyledonous weed plants per pot), covered with soil and cultivated in a greenhouse under controlled growth conditions. 2 to 3 weeks after sowing, the test plants were treated at the one-leaf stage. The compounds of the invention, formulated in the form of wettable powders (WP) or as emulsion concentrates (EC), were applied onto the green parts of the plants as aqueous suspension or emulsion with addition of 0.5% additive at a water application rate of 600 liters per hectare (converted). After the test plants had been kept in the greenhouse under optimum growth conditions for about 3 weeks, the activity of the preparations was rated visually in comparison to untreated controls. For example, 100% activity=the plants have died, 0% activity=like control plants.

Poa annua (POAAN) [2] = test: Herbicidal post-emergence action, section B (Table B7); details: Poa annua, post-emergence, 504 h, visual rating about 3 weeks after treatment vs untreated controls, read-out: post-emergence activity against POAAN in %
In short: (§2)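 Potted weeds in sandy loam are treated post-emergence at the one-leaf stage, 2 to 3 weeks after sowing. The spray is an aqueous WP or EC preparation with 0.5% additive at 600 liters per hectare. Percent activity is assessed by eye after about 3 weeks versus untreated controls.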

[3] = tested on: Echinochloa crus-galli (ECHCG); test: Herbicidal pre-emergence action, section A (Table A3); details: Echinochloa crus-galli, pre-emergence, 504 h, visual grading after ca. 3 weeks vs untreated controls, read-out: pre-emergence activity against ECHCG in %
In short: (§3)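 Compounds are applied pre-emergence to the soil covering freshly sown seeds in sandy loam, as WP or EC in water with 0.5% additive at a spray volume of 600 l/ha. Plants grow in the greenhouse, and percent damage is rated visually after roughly 3 weeks relative to untreated controls.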

Veronica persica (VERPE) [4] = test: Herbicidal post-emergence action, section B (Table B10); details: Veronica persica, post-emergence, 504 h, visual rating about 3 weeks after treatment vs untreated controls, read-out: post-emergence activity against VERPE in %
In short: as §2

Setaria viridis (SETVI) [5] = test: Herbicidal pre-emergence action, section A (Table A8); details: Setaria viridis, 504 h, read-out: pre-emergence activity against SETVI in %
In short: as §3

Lolium rigidum (LOLRI) [6] = test: Herbicidal post-emergence action, section B (Table B5); details: Lolium rigidum, post-emergence, 504 h; application rate 1280 g/ha; visual rating about 3 weeks after treatment vs untreated controls; read-out: post-emergence activity against LOLRI in %
Experimental: as §1

[7] = tested on: Digitaria sanguinalis (DIGSA); test: Herbicidal pre-emergence action, section A (Table A12); details: Digitaria sanguinalis, 504 h, application rate 1280 g/ha, read-out: pre-emergence activity against DIGSA in %
In short: as §3

Stellaria media (STEME) [8] = test: Herbicidal post-emergence action, section B (Table B9); details: Stellaria media, post-emergence, 504 h; application rate 1280 g/ha; visual rating about 3 weeks after treatment vs untreated controls; read-out: post-emergence activity against STEME in %
In short: as §2

Veronica persica (VERPE) [9] = test: Herbicidal pre-emergence action, section A (Table A10); details: Veronica persica, 504 h, application rate 320 g/ha, read-out: pre-emergence activity against VERPE in %
In short: as §3

Setaria viridis (SETVI) [10] = test: Herbicidal post-emergence action, section B (Table B8); details: Setaria viridis, post-emergence, 504 h; application rate 320 g/ha; visual rating about 3 weeks after treatment vs untreated controls; read-out: post-emergence activity against SETVI in %
Experimental: as §1

[11] = tested on: Abutilon theophrasti (ABUTH); test: Herbicidal post-emergence action, section B (Table B1); details: Abutilon theophrasti, 504 h, application rate 1280 g/ha, rated visually after about 3 weeks, read-out: post-emergence activity against ABUTH in %
Experimental: as §1

[12] = tested on: Amaranthus retroflexus (AMARE); test: Herbicidal post-emergence action, section B (Table B11); details: Amaranthus retroflexus, post-emergence, 504 h; application rate 320 g/ha; visual rating about 3 weeks after treatment vs untreated controls; read-out: post-emergence activity against AMARE in %
In short: as §2

Stellaria media (STEME) [13] = test: Herbicidal pre-emergence action, section A (Table A9); details: Stellaria media, 504 h, application rate 320 g/ha, read-out: pre-emergence activity against STEME in %
In short: as §3

[14] = tested on: Matricaria inodora (MATIN); test: Herbicidal pre-emergence action, section A (Table A6); details: Tripleurospermum inodorum, pre-emergence, 504 h; application rate 1280 g/ha; visual grading after ca. 3 weeks vs untreated controls; read-out: pre-emergence activity against MATIN in %
In short: as §3

[15] = tested on: Amaranthus retroflexus (AMARE); test: Herbicidal pre-emergence action, section A (Table A11); details: Amaranthus retroflexus, 504 h, read-out: pre-emergence activity against AMARE in %
In short: as §3

Poa annua (POAAN) [16] = test: Herbicidal pre-emergence action, section A (Table A7); details: Poa annua, pre-emergence, 504 h, visual grading after ca. 3 weeks vs untreated controls, read-out: pre-emergence activity against POAAN in %
In short: as §3

Kochia scoparia (KCHSC) [17] = test: Herbicidal pre-emergence action, section A (Table A4); details: Bassia scoparia, pre-emergence, 504 h, visual grading after ca. 3 weeks vs untreated controls, read-out: pre-emergence activity against KCHSC in %
In short: as §3

[18] = tested on: Digitaria sanguinalis (DIGSA); test: Herbicidal post-emergence action, section B (Table B12); details: Digitaria sanguinalis, post-emergence, 504 h; application rate 1280 g/ha; visual rating about 3 weeks after treatment vs untreated controls; read-out: post-emergence activity against DIGSA in %
Experimental: as §1

Lolium rigidum (LOLRI) [19] = test: Herbicidal pre-emergence action, section A (Table A5); details: Lolium rigidum, pre-emergence, 504 h, visual grading after ca. 3 weeks vs untreated controls, read-out: pre-emergence activity against LOLRI in %
In short: as §3

Kochia scoparia (KCHSC) [20] = test: Herbicidal post-emergence action, section B (Table B4); details: Bassia scoparia, post-emergence, 504 h; application rate 1280 g/ha; visual rating about 3 weeks after treatment vs untreated controls; read-out: post-emergence activity against KCHSC in %
In short: as §2

SMILES: Cc1cc2c(nc1-c1ccccc1Cl)N(S(C)(=O)=O)CS2 [Example I-142, 5-(2-chlorophenyl)-6-methyl-3-(methylsulfonyl)-2,3-dihydro[1,3]thiazolo[4,5-b]pyridine]
- pest or weed control at 320 g/ha ([1]; application rate 320 g/ha): 90%
- pest or weed control at 1280 g/ha (Poa annua (POAAN) [2]; application rate 1280 g/ha): 90%
- pest or weed control at 320 g/ha ([3]; application rate 320 g/ha): 100%
- pest or weed control at 320 g/ha (Veronica persica (VERPE) [4]; application rate 320 g/ha): 90%
- pest or weed control at 320 g/ha (Setaria viridis (SETVI) [5]; application rate 320 g/ha): 100%
- pest or weed control at 1280 g/ha (Lolium rigidum (LOLRI) [6]): 90%
- pest or weed control at 1280 g/ha [7]: 100%
- pest or weed control at 1280 g/ha (Stellaria media (STEME) [8]): 90%
- pest or weed control at 320 g/ha (Veronica persica (VERPE) [9]): 90%
- pest or weed control at 320 g/ha (Setaria viridis (SETVI) [10]): 90%
- pest or weed control at 1280 g/ha [11]: 90%
- pest or weed control at 320 g/ha [12]: 90%
- pest or weed control at 320 g/ha (Stellaria media (STEME) [13]): 90%
- pest or weed control at 1280 g/ha [14]: 90%
- pest or weed control at 320 g/ha ([15]; application rate 320 g/ha): 90%
- pest or weed control at 320 g/ha (Poa annua (POAAN) [16]; application rate 320 g/ha): 100%
- pest or weed control at 320 g/ha (Kochia scoparia (KCHSC) [17]; application rate 320 g/ha): 90%
- pest or weed control at 1280 g/ha [18]: 90%
- pest or weed control at 320 g/ha (Lolium rigidum (LOLRI) [19]; application rate 320 g/ha): 100%

SMILES: Cc1cscc1-c1nc2c(cc1C)[S+]([O-])CN2 (centres unmarked) [Example I-023]
- pest or weed control at 1280 g/ha ([1]; application rate 1280 g/ha): 90%
- pest or weed control at 320 g/ha (Poa annua (POAAN) [2]; application rate 320 g/ha): 90%
- pest or weed control at 1280 g/ha ([3]; application rate 1280 g/ha): 100%
- pest or weed control at 1280 g/ha (Veronica persica (VERPE) [4]; application rate 1280 g/ha): 90%
- pest or weed control at 1280 g/ha (Setaria viridis (SETVI) [5]; application rate 1280 g/ha): 100%
- pest or weed control at 1280 g/ha (Kochia scoparia (KCHSC) [20]): 90%
- pest or weed control at 1280 g/ha (Lolium rigidum (LOLRI) [6]): 90%
- pest or weed control at 1280 g/ha [7]: 100%
- pest or weed control at 1280 g/ha (Stellaria media (STEME) [8]): 90%
- pest or weed control at 320 g/ha (Veronica persica (VERPE) [9]): 90%
- pest or weed control at 320 g/ha (Stellaria media (STEME) [13]): 90%
- pest or weed control at 1280 g/ha [14]: 90%
- pest or weed control at 1280 g/ha ([15]; application rate 1280 g/ha): 90%
- pest or weed control at 1280 g/ha (Poa annua (POAAN) [16]; application rate 1280 g/ha): 100%
- pest or weed control at 1280 g/ha (Kochia scoparia (KCHSC) [17]; application rate 1280 g/ha): 90%
- pest or weed control at 1280 g/ha (Lolium rigidum (LOLRI) [19]; application rate 1280 g/ha): 100%
